Reference: patent US5424451A, “Process for preparing aminoalkylcarbamic esters of eseroline” (priority 1992, dated 1995)
Read-outs that look alike come from different tables or passages of the source.

How the values were obtained:
[1] = target: T1, acetylcholinesterase from human red blood cells (Homo sapiens, UniProt P22303); experiment: Inhibition of acetylcholinesterase from human erythrocyte (Ellman colorimetric method); type: biochemical; settings: for Activity against human red blood cells acetylcholinesterase (in words): Table 2 results
T1 construct: purchased Sigma Chemical; host or cells: human erythrocyte

in vivo = settings: rat, po
[2] = target: T2, butyrylcholinesterase from human serum (Homo sapiens, UniProt P06276); experiment: Inhibition of butyrylcholinesterase from human serum (Ellman colorimetric method); type: biochemical
T2 construct: purchased Sigma Chemical; host or cells: human serum

[3] = target: T3, acetylcholinesterase from electric eel (Electrophorus electricus, UniProt O42275); experiment: biochemical
T3 construct: purchased Sigma Chemical; host or cells: electric eel

[4] = Cholinesterase Inhibition IC50, AChE hRBC, contact time 10'
[5] = Cholinesterase Inhibition IC50, AChE hRBC, contact time 30'
[6] = Cholinesterase Inhibition IC50, AChE hRBC, contact time 60'
[7] = contact time 10', read-out: Cholinesterase Inhibition IC50, AChE hRBC
[8] = Cholinesterase Inhibition IC50, AChE E.eel, contact time 10'
[9] = Cholinesterase Inhibition IC50, AChE E.eel, contact time 30'

T1 sequence (P22303 32-617 isoform P22303-2 limits assumed): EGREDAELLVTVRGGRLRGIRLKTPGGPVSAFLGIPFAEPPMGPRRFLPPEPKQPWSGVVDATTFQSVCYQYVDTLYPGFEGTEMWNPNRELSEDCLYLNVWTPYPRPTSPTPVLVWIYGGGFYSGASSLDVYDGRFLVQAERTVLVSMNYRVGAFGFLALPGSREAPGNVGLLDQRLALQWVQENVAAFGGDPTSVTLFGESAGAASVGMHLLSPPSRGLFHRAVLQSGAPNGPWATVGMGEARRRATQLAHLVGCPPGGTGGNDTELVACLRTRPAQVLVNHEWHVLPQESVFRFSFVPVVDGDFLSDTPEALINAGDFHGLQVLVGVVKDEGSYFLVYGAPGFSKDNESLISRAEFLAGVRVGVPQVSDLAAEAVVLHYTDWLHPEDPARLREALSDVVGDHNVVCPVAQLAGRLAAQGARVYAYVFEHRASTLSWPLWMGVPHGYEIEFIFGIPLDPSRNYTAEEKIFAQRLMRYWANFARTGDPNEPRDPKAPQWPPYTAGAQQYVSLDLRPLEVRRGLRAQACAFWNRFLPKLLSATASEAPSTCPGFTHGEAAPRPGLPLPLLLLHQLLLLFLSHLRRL
T3 sequence (O42275 24-633): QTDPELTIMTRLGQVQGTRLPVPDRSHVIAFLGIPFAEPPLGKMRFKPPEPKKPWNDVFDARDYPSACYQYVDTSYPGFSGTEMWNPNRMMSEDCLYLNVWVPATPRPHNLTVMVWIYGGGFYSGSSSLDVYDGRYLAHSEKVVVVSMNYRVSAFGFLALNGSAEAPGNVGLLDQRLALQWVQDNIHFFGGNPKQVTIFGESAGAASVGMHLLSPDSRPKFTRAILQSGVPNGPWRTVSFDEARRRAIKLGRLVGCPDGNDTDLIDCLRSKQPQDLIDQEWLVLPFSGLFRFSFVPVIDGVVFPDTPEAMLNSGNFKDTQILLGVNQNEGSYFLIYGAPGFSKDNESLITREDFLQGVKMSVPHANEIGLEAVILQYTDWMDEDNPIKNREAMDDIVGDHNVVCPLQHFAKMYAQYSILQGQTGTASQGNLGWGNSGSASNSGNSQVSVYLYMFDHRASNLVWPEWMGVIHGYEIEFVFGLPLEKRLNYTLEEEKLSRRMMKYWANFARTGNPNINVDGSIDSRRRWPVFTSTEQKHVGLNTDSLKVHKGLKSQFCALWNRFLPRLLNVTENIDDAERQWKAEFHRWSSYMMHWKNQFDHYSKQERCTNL
T2 sequence (P06276 29-602): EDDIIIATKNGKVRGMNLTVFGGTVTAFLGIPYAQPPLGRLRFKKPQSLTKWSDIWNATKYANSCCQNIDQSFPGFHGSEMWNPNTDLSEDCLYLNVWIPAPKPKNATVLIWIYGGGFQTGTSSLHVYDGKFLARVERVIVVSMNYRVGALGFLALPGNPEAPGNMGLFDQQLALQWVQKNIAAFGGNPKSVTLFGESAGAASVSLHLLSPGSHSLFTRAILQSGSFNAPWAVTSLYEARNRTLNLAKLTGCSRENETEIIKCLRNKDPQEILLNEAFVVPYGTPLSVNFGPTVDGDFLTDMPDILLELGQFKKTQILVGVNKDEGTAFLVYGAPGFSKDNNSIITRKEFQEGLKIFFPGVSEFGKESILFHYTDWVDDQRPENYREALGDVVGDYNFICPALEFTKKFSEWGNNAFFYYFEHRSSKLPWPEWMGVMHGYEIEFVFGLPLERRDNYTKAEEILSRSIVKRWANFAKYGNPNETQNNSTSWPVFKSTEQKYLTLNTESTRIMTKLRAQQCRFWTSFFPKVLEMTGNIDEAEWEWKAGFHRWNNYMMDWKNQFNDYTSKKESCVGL

CC(=O)N1CCN(CCNC(=O)Oc2ccc3c(c2)[C@]2(C)CCN(C)[C@@H]2N3C)CC1 [MF 246]
IC50 [1, 4]: 20 µM

CN1CC[C@@]2(C)c3cc(OC(=O)NCCCCCCCCN4CC=CC4)ccc3N(C)[C@@H]12 [MF 250]
IC50 [1, 4]: 0.03 µM

CCCN(CCC)CCCCCCCCCCNC(=O)Oc1ccc2c(c1)[C@]1(C)CCN(C)[C@@H]1N2C [MF 257]
IC50 [1, 4]: 0.03 µM | Activity against human red blood cells acetylcholinesterase (in words) [1]: Particularly active

CN1CC[C@@]2(C)c3cc(OC(=O)NCCCCCCCCCCN4CCCCC4)ccc3N(C)[C@@H]12 [MF 248]
IC50 [1, 4]: 0.019 µM | Activity against human red blood cells acetylcholinesterase (in words) [1]: Particularly active | LD50 (in vivo): 15.3 mg/kg

CCCN(CCC)CCCCCCCCCCCCNC(=O)Oc1ccc2c(c1)[C@]1(C)CCN(C)[C@@H]1N2C [MF 258]
IC50 [1, 4]: 1 µM

CN1CC[C@@]2(C)c3cc(OC(=O)NCCN4CCOCC4)ccc3N(C)[C@@H]12 [MF 214, N-morpholinylethylcarbamoyleseroline]
IC50 [1, 5]: 0.14 µM | IC50 [1, 6]: 0.11 µM | IC50 [1, 7]: 0.7 µM | IC50 [2]: 4.1 µM

CN(CCCCCCCCNC(=O)Oc1ccc2c(c1)[C@]1(C)CCN(C)[C@@H]1N2C)c1ccccc1 [MF 263]
IC50 [1, 4]: 0.05 µM | Activity against human red blood cells acetylcholinesterase (in words) [1]: Particularly active

CN1CC[C@@]2(C)c3cc(OC(=O)NCCCCCCCC(=O)N4CCOCC4)ccc3N(C)[C@@H]12 [MF 269]
IC50 [1, 4]: 0.12 µM

CN1CC[C@@]2(C)c3cc(OC(=O)NCCCCCCCCN4CCSCC4)ccc3N(C)[C@@H]12 [MF 239]
IC50 [1, 4]: 0.05 µM | Activity against human red blood cells acetylcholinesterase (in words) [1]: Particularly active | LD50 (in vivo): 23.8 mg/kg

CC(=O)N1CCN(CCCCCCCCNC(=O)Oc2ccc3c(c2)[C@]2(C)CCN(C)[C@@H]2N3C)CC1 [MF 240]
IC50 [1, 4]: 0.24 µM

CN1CC[C@@]2(C)c3cc(OC(=O)NCCCCCCCCCCN4CCCC4)ccc3N(C)[C@@H]12 [MF 253]
IC50 [1, 4]: 0.03 µM | Activity against human red blood cells acetylcholinesterase (in words) [1]: Particularly active

CN1CCN(CCCCCCCCCCCCNC(=O)Oc2ccc3c(c2)[C@]2(C)CCN(C)[C@@H]2N3C)CC1 [MF 229]
IC50 [3, 8]: 0.04 µM | IC50 [1, 4]: 0.06 µM | Activity against human red blood cells acetylcholinesterase (in words) [1]: Particularly active

CN1CCN(C(=O)CCCCCNC(=O)Oc2ccc3c(c2)[C@]2(C)CCN(C)[C@@H]2N3C)CC1 [MF 245]
IC50 [1, 4]: 5.5 µM

CCN(CC)CCCCCCCCNC(=O)Oc1ccc2c(c1)[C@]1(C)CCN(C)[C@@H]1N2C [MF 237]
IC50 [3, 8]: 0.34 µM | IC50 [3, 9]: 0.19 µM | IC50 ([3]; Cholinesterase Inhibition IC50, AChE E.eel, contact time 60'): 0.12 µM | IC50 [1, 4]: 0.11 µM | IC50 [1, 5]: 0.07 µM | IC50 [1, 6]: 0.03 µM | Activity against human red blood cells acetylcholinesterase (in words) [1]: Particularly active

COCCN(CCCCCCCCNC(=O)Oc1ccc2c(c1)[C@]1(C)CCN(C)[C@@H]1N2C)CCOC [MF 271]
IC50 [1, 4]: 0.05 µM | Activity against human red blood cells acetylcholinesterase (in words) [1]: Particularly active

CN1CC[C@@]2(C)c3cc(OC(=O)NCCCCCCCCN4CCN(Cc5ccccc5)CC4)ccc3N(C)[C@@H]12 [MF 266]
IC50 [1, 4]: 0.07 µM | Activity against human red blood cells acetylcholinesterase (in words) [1]: Particularly active

CN(CCCCCCCCN1CCOCC1)C(=O)Oc1ccc2c(c1)[C@]1(C)CCN(C)[C@@H]1N2C [MF 243, N-(morpholinyloctyl),N-methyl carbamoyl eseroline]
IC50 [1, 4]: 7.4 µM

CCN(CC)CCCCCCCCCCCCNC(=O)Oc1ccc2c(c1)[C@]1(C)CCN(C)[C@@H]1N2C [MF 254]
IC50 [1, 4]: 0.05 µM | Activity against human red blood cells acetylcholinesterase (in words) [1]: Particularly active

CN1CC[C@@]2(C)c3cc(OC(=O)NCCCCCCCCN4CCCCC4)ccc3N(C)[C@@H]12 [MF 241, N-piperidinyloctylcarbamoyleseroline]
IC50 [1, 4]: 0.1 µM | Activity against human red blood cells acetylcholinesterase (in words) [1]: Particularly active

CN1CCN(CCCCCCCCCCNC(=O)Oc2ccc3c(c2)[C@]2(C)CCN(C)[C@@H]2N3C)CC1 [MF 255]
IC50 [1, 4]: 0.05 µM | Activity against human red blood cells acetylcholinesterase (in words) [1]: Particularly active

CCCN(CCC)CCCCCCCCNC(=O)Oc1ccc2c(c1)[C@]1(C)CCN(C)[C@@H]1N2C [MF 256]
IC50 [1, 4]: 0.08 µM | Activity against human red blood cells acetylcholinesterase (in words) [1]: Particularly active | LD50 (in vivo): 18.3 mg/kg

CCCCN1CCN(CCCCCCCCNC(=O)Oc2ccc3c(c2)[C@]2(C)CCN(C)[C@@H]2N3C)CC1 [MF 273]
IC50 [1, 4]: 0.03 µM | Activity against human red blood cells acetylcholinesterase (in words) [1]: Particularly active

CCN1CCN(CCCCCCCCNC(=O)Oc2ccc3c(c2)[C@]2(C)CCN(C)[C@@H]2N3C)CC1 [MF 262]
IC50 [1, 4]: 0.03 µM | Activity against human red blood cells acetylcholinesterase (in words) [1]: Particularly active

CN1CC[C@@]2(C)c3cc(OC(=O)NCCCCCCCCN4CCC5(CC4)OCCO5)ccc3N(C)[C@@H]12 [MF 265]
IC50 [1, 4]: 0.08 µM | Activity against human red blood cells acetylcholinesterase (in words) [1]: Particularly active

CN1CC[C@@]2(C)c3cc(OC(=O)NCCCCCCCCN4CCCC4)ccc3N(C)[C@@H]12 [MF 251, N-pyrrolidinyloctylcarbamoyleseroline]
IC50 [1, 4]: 0.07 µM | Activity against human red blood cells acetylcholinesterase (in words) [1]: Particularly active

CC(=O)N1CCN(CCCCCCCCCCNC(=O)Oc2ccc3c(c2)[C@]2(C)CCN(C)[C@@H]2N3C)CC1 [MF 252]
IC50 [1, 4]: 0.027 µM | Activity against human red blood cells acetylcholinesterase (in words) [1]: Particularly active

CN1CC[C@@]2(C)c3cc(OC(=O)NCCCCCCCCCN4CCOCC4)ccc3N(C)[C@@H]12 [MF 233]
IC50 ([3]; read-out: Cholinesterase Inhibition IC50, AChE E.eel, contact time 10'): 0.14 µM | Activity against human red blood cells acetylcholinesterase (in words) [1]: Particularly active | IC50 [1, 7]: 0.06 µM

CN1CC[C@@]2(C)c3cc(OC(=O)NCCCCCCCCCCCN4CCOCC4)ccc3N(C)[C@@H]12 [MF 232]
IC50 [3, 8]: 0.07 µM | IC50 [1, 7]: 0.04 µM

CN1CC[C@@]2(C)c3cc(OC(=O)NCCCN4CCOCC4)ccc3N(C)[C@@H]12 [MF 218, N-morpholinylpropylcarbamoyleseroline]
IC50 [1, 7]: 3.8 µM

CN1CCN(CCCCCCCCNC(=O)Oc2ccc3c(c2)[C@]2(C)CCN(C)[C@@H]2N3C)CC1 [MF 230, N-(N-methylpiperazinyloctyl)carbamoyleseroline]
IC50 [3, 8]: 0.2 µM | IC50 [3, 9]: 0.08 µM | IC50 [1, 4]: 0.03 µM | IC50 [1, 5]: 0.05 µM | Activity against human red blood cells acetylcholinesterase (in words) [1]: Particularly active | LD50 (in vivo): 27.7 mg/kg

CC(C)CN1CCN(CCCCCCCCNC(=O)Oc2ccc3c(c2)[C@]2(C)CCN(C)[C@@H]2N3C)CC1 [MF 270]
IC50 [1, 4]: 0.06 µM

CCN(CC)CCCCCCCCCCNC(=O)Oc1ccc2c(c1)[C@]1(C)CCN(C)[C@@H]1N2C [MF 247]
IC50 [1, 4]: 0.017 µM | Activity against human red blood cells acetylcholinesterase (in words) [1]: Particularly active

CN1CC[C@@]2(C)c3cc(OC(=O)NCCCCCCCCCCCCN4CCCCC4)ccc3N(C)[C@@H]12 [MF 249]
IC50 [1, 4]: 0.05 µM | Activity against human red blood cells acetylcholinesterase (in words) [1]: Particularly active

CC(=O)N1CCN(CCCCCCCCCCCCNC(=O)Oc2ccc3c(c2)[C@]2(C)CCN(C)[C@@H]2N3C)CC1 [MF 275]
IC50 [1, 4]: 0.05 µM

C[C@@H]1CN(CCCCCCCCNC(=O)Oc2ccc3c(c2)[C@]2(C)CCN(C)[C@@H]2N3C)C[C@@H](C)O1 [MF 276, 8-(trans-2,6-dimethyl)morpholinyloctylcarbamoyl eseroline]
Activity against human red blood cells acetylcholinesterase (in words) [1]: Particularly active | IC50 ([1]; read-out: Cholinesterase Inhibition IC50, AChE hRBC, contact time 10'): 0.07 µM | IC50 ([2]; read-out: Cholinesterase Inhibition IC50, BuChE hserum, contact time 10'): 0.25 µM

CCCN1CCN(CCCCCCCCNC(=O)Oc2ccc3c(c2)[C@]2(C)CCN(C)[C@@H]2N3C)CC1 [MF 261]
IC50 [1, 4]: 0.02 µM | Activity against human red blood cells acetylcholinesterase (in words) [1]: Particularly active
